{"source": "patent US7745473B2", "about": "“Indole derivative for alkylating specific base sequence of DNA and alkylating agent and drug containing the derivative” (Kyoto University, priority 2004, dated 2010)", "key": {"[1]": {"test_system": "727-bp DNA fragment (SEQ ID NO:14)", "assay": "Sequence-specific alkylation of DNA by polyamide heterodimer", "type": "biochemical", "details": "727-bp fragment, FIG. 7", "protocol": "A 5′-Texas Red-labeled 727-bp DNA fragment (SEQ ID NO:14) was prepared by a PCR method using a 5′-Texas Red-labeled 20-base-pair primer, i.e., 5′-TexRed-[…]-3′ (SEQ ID NO:15), and a 21-base-pair primer, i.e., 5′-[…]-3′ (SEQ ID NO:16), a plasmid containing MLP into which the code base sequence of human β-globin was integrated being used as a template.\n(§1) Analysis by polyacrylamide gel electrophoresis was performed by the following process: A standard reaction solution containing the 5′-Texas Red-end-labeled DNA fragment (10 nM), DMF (10% (v/v)), and an agent having a concentration described above in a sodium phosphate buffer (5 mM, total volume: 10 μL, pH=7.0) was charged into a microfuge tube (Eppendorf) and left standing at 23° C. for 8 hours. After completion of the reaction, the reaction was quenched by the addition of calf thymus DNA (1 mM, 1 μL). The resulting mixture was shaken at 90° C. for 5 minutes. The DNA obtained by centrifugation under reduced pressure was dissolved by the addition of 8 μl, of loading dye (fushin red solution in DMF), shaken at 94° C. for 20 minutes, and then immediately cooled to 0° C. A 2-μL aliquot was separated electrophoretically on a 6% denaturing polyacrylamide gel using a Hitachi 5500-S DNA sequencer. The following tests were conducted in a similar way. […]"}, "[2]": {"test_system": "DNA fragment (SEQ ID NO:11) derived from pQBI63", "assay": "DNA alkylation of 5′-Texas Red-labeled DNA fragment (994 bp)", "type": "biochemical", "details": "FIG. 5", "protocol": "A 5′-Texas Red-labeled DNA fragment (994 bp) (pQBI63; SEQ ID NO:11) was prepared by a PCR method using a 20-base-pair primer, i.e., 5′-[…]-3′ (SEQ ID NO:12), and a 5′-Texas Red-labeled 20-base-pair primer, i.e., 5′-TexRed-[…]-3′ (SEQ ID NO:13), pQBI63 plasmid being used as a template.\nas §1"}, "[3]": {"test_system": "39 cultured human cancer cell lines", "assay": "Anticancer activity screening on 39 cultured human cancer cell lines (Japanese Foundation for Cancer Research)", "details": "mean of 39 cultured human cancer cell lines", "source_text": "Evaluation of the anticancer activity on the 39 cultured human cancer cell lines from breast cancer cell line to prostate cancer cell line was made by screening test performed in The Japanese Foundation for Cancer Research."}, "[4]": {"test_system": "long-chain DNA (pUC-II; SEQ ID NO:4, pUC-I′; SEQ ID NO:1)", "assay": "DNA alkylation of 5′-Texas Red-labeled long-chain DNA, analysed by polyacrylamide gel electrophoresis", "type": "biochemical", "details": "8 hours, pUC-II and pUC-I′, FIG. 2", "protocol": "A 5′-Texas Red-labeled DNA fragment (450 bp) (pUC-I′, SEQ ID NO:1) was prepared by a PCR method using a 5′-Texas Red-labeled 20-base-pair primer, i.e., 5′-TexRed-[…]-3′ (pUC18 forward, 780-799; SEQ ID NO:2), and a 20-base-pair primer, i.e., 5′-[…]-3′ (pUC18 reverse, 1459-1478; SEQ ID NO:3), puc18 being used as a template. The DNA fragment was in a double-stranded state including a complementary strand (the following fragments were in the same state).\nA 5′-Texas Red-labeled DNA fragment (450 bp) (pUC-II, SEQ ID NO:4) was prepared by a PCR method using a 5′-Texas Red-labeled 21-base-pair primer, i.e., 5′-TexRed-[…]-3′ (pUC18 reverse, 1861-1881; SEQ ID NO:5), and a 19-base-pair primer, i.e., 5-TGTAAAACGACGGCCAGTG-3′ (pUC18 forward, 328-345; SEQ ID NO:6), puc18 being used as a template.\n(§2) Analysis by polyacrylamide gel electrophoresis was performed by the following process: A standard reaction solution containing the 5′-Texas Red-end-labeled DNA fragment (10 nM), DMF (10% (v/v)), and an agent having a concentration described above in a sodium phosphate buffer (5 mM, total volume: 10 μL, pH=7.0) was charged into a microfuge tube (Eppendorf) and left standing at 23° C. for 8 hours. After completion of the reaction, the reaction was quenched by the addition of calf thymus DNA (1 mM, 1 μL). The resulting mixture was shaken at 90° C. for 5 minutes. The DNA obtained by centrifugation under reduced pressure was dissolved by the addition of 8 μl, of loading dye (fushin red solution in DMF), shaken at 94° C. for 20 minutes, and then immediately cooled to 0° C. A 2-μL aliquot was separated electrophoretically on a 6% denaturing polyacrylamide gel using a Hitachi 5500-S DNA sequencer. The following tests were conducted in a similar way.\nThe reaction of compounds (3-2) and (3-3) prepared in the above-described Synthesis Examples with DNA was studied using the long-chain DNA (pUC-II; SEQ ID NO:4, pUC-I′; SEQ ID NO:1). An alkylation reaction was performed for 8 hours. The sequence alkylated was analyzed by polyacrylic gel electrophoresis for sequence determination. […] However, the difference in sequence recognition ability was observed. […] From the stand point of the sequence recognition ability, the molecular design of compound (3-2) was excellent."}, "[5]": {"test_system": "HeLa (human cervical cancer-derived cell)", "details": "read-out: 50% cell growth inhibitory concentration (IC50), 48 hours, 0.1% DMF", "protocol": "(§3) HCT-116 (human colon cancer-derived cell), HeLa (human cervical cancer-derived cell), HLC-2 (human lung cancer-derived cell), and SH-SY-5Y (human neuroblast-derived cell) were treated with AcImImPyPy-γ-ImPy-Indole-CBI (3-2) (10^−5 to 10^−8 M with 0.1% DMF) for 48 hours to evaluate the effect of the compound as an anticancer agent.\n(§4) Evaluation of anticancer activity was made by the following process: HCT-116, HeLa, HLC-2, and SH-SY-5Y cell lines were seeded into a 96-well flat bottom plate in complete media [RPMI1640 (HCT-116, SH-SY-5Y; Sigma-Aldrich Co.) each containing 10% fetal bovine serum and Dulbecco's […] (HeLa, HLC-2, 293T, WI-38; Sigma-Aldrich Co.)] at cell densities of 4.0×10^3, 3.6×10^3, 1.6×10^3, 7.0×10^2, 5.0×10^2, and 8.0×10^2 cells/well and were precultured for 24 hours in a CO2 incubator. The media were replaced with complete media containing 0.1% DMF and 10^−5 to 10^−8 M AcImImPyPy-γ-ImPy-Indole-CBI (3-2). Incubation was performed for 48 hours in the CO2 incubator. Then, 10 μL/well of a Cell Counting Kit-8 (Dojindo Laboratories) was added. The specimens were left standing for 2 hours in the CO2 incubator. Absorbance was measured with a microplate reader MPR-A4I (Tosoh Corp.)."}, "[6]": {"test_system": "SH-SY-5Y (human neuroblast-derived cell)", "details": "read-out: 50% cell growth inhibitory concentration (IC50), 48 hours, 0.1% DMF", "protocol": "as §3, §4"}, "[7]": {"test_system": "cancerous cell lines versus normal cell lines", "details": "cancerous versus normal cell lines (293T, WI-38)", "protocol": "as §3, §4"}, "[8]": {"test_system": "HLC-2 (human lung cancer-derived cell)", "details": "read-out: 50% cell growth inhibitory concentration (IC50); HLC-2, 48 hours, 0.1% DMF", "protocol": "as §3, §4"}, "[9]": {"test_system": "HCT-116 (human colon cancer-derived cell)", "details": "read-out: 50% cell growth inhibitory concentration (IC50); HCT-116, 48 hours, 0.1% DMF", "protocol": "as §3, §4"}, "[10]": {"test_system": "long-chain DNA (λ-F10906; SEQ ID NO:8)", "assay": "DNA alkylation of 5′-Texas Red-labeled long-chain DNA, analysed by polyacrylamide gel electrophoresis", "type": "biochemical", "details": "λ-F10906, nanomolar concentrations, FIG. 4", "protocol": "A 5′-Texas Red-labeled DNA fragment (537 bp) (λ-F10906; SEQ ID NO:8) was prepared by a PCR method using a 5′-Texas Red-labeled 23-base-pair primer, i.e., 5′-TexRed-[…]-3′ (λ-DNA forward, 10960-10982; SEQ ID NO:9), and a 20-base-pair primer, i.e., 5′-[…]-3′ (λ-DNA reverse, 37007-37026; SEQ ID NO:10), λ-DNA being used as a template.\nas §2\nThe reaction of compounds (3-2), (3-4), and (3-5) with DNA was studied using the long-chain DNA (λ-F10906; SEQ ID NO:8). The DNA-alkylating ability of each compound was evaluated."}, "[11]": {"test_system": "DNA fragment (446 bp; SEQ ID NO:17) containing 24 repeats of a telomeric sequence", "assay": "DNA alkylation targeting telomeric sequence", "type": "biochemical", "details": "446 bp fragment, nanomolar concentrations, FIG. 8", "protocol": "A 5′-Texas Red-labeled 446-bp DNA fragment (SEQ ID NO:17 with a 24-times-repeated telomere sequence was prepared by a PCR method using a 5′-Texas Red-labeled 20-base pair primer, i.e., 5′-TexRed-[…]-3′ (SEQ ID NO:18), and a 20-base-pair primer, i.e., 5′-[…]-3′ (SEQ ID NO:19), pCR2.1 plasmid into which an oligomer having a repetitive telomere sequence was integrated from the cleavage site by EcoRI being used as a template. The resulting each DNA fragment was purified by filtration using Suprec-02. The concentration of each resulting product was determined by measuring UV absorption.\nas §1, with “C.” for “C. A 2-μL aliquot was separated electrophoretically on a 6% denaturing polyacrylamide gel using a Hitachi 5500-S DNA sequencer. The following tests were conducted in a similar way.”"}, "[12]": {"test_system": "5′-YG(A/T)CR-3′ sequence", "details": "low concentration, dimer, both chains, sites 5 base pairs apart; cited from earlier work"}}, "note": "“Also recorded” adds a separate entry of the source."}
{"compound": "CC(=O)Nc1cn(C)c(C(=O)Nc2cn(C)c(C(=O)Nc3cc(C(=O)NCCC(=O)Nc4cn(C)c(C(=O)Nc5cc(C(=O)Nc6ccc7[nH]c(C(=O)N8CC9CC9%10C8=CC(=O)c8ccccc8%10)cc7c6)n(C)c5)n4)n(C)c3)n2)n1", "note": "(stereo not drawn) [compound (3-7), AcImImPy-β-ImPy-Indole-CBI]", "values": [{"measurement": "alkylated sites in the presence of compound (6)", "setting": "[1]; compound (6) 500 nM, heterodimer", "value": "alkylation (site 4) based on accurate 10-base-pair recognition was observed"}, {"measurement": "alkylated sites, compound alone", "setting": "[1]; nanomolar concentrations", "value": "efficient alkylation of sites 1 and 2 based on a hairpin mode of recognition and of site 3 based on a linear-chain mode of recognition"}]}
{"compound": "CC(=O)Nc1cn(C)c(C(=O)Nc2cn(C)c(C(=O)Nc3cc(C(=O)Nc4cc(C(=O)NCCC(=O)Nc5cc(C(=O)Nc6cc(C(=O)NCCCC(=O)Nc7cn(C)c(C(=O)Nc8cc(C(=O)NCCC(=O)Nc9cn(C)c(C(=O)Nc%10cc(C(=O)Nc%11ccc%12[nH]c(C(=O)N%13CC%14CC%14%15C%13=CC(=O)c%13ccccc%13%15)cc%12c%11)n(C)c%10)n9)n(C)c8)n7)n(C)c6)n(C)c5)n(C)c4)n(C)c3)n2)n1", "note": "(stereo not shown) [compound (3-6), AcImImPyPyβPyPy-γ-ImPyβImPy-Indole-CBI]", "values": [{"measurement": "alkylated sites (sequence recognition)", "setting": "[2]", "value": "alkylation (site 2) due to 1-bp-mismatch recognition was observed; also recorded: alkylation of AT-rich base sequences (sites 1 and 3) was also observed"}, {"measurement": "efficiency of DNA alkylation", "setting": "[2]", "value": "efficiently alkylated 1,000-base-pair DNA at nanomolar concentrations"}]}
{"compound": "AcImImPyPy-γ-ImPy-Indole-CBI [compound (3-2)]", "values": [{"measurement": "mean log IC50 value of 39 cell lines", "setting": "[3]; log value, FIG. 9", "value": "about −7"}, {"measurement": "IC50", "setting": "[3]; read-out: mean IC50 of 39 cell lines, printed in brackets after the log value", "value": "~100", "unit": "nM"}, {"measurement": "alkylated sites (sequence recognition ability)", "setting": "[4]", "value": "alkylation in only site 3 (5′-TGACCA-3′) and site 6 (5′-AGTCCA-3′), which were match sequences, was observed"}, {"measurement": "efficiency of DNA alkylation", "setting": "[4]", "value": "efficient DNA alkylation comparable with that of a known Py-Im polyamide having a vinyl linker was observed at nanomolar concentrations"}, {"measurement": "IC50", "setting": "[5]", "value": 59.7, "unit": "nM"}, {"measurement": "IC50", "setting": "[6]", "value": 7.43, "unit": "nM"}, {"measurement": "anticancer activity against the cancerous cell lines relative to the normal cell lines", "setting": "[7]", "value": "about 10 times"}, {"measurement": "IC50", "setting": "[8]", "value": 53.5, "unit": "nM"}, {"measurement": "IC50", "setting": "[9]", "value": 74.2, "unit": "nM"}, {"measurement": "sequence-specific DNA alkylation, alkylated sites", "setting": "[10]", "value": "Sequence-specific DNA alkylation (site 2 and 3: 5′-TGACCA-3′, site 4: 5′-AGACCA-3′, site 5: 5′-TGTCCA-3′)"}]}
{"compound": "CC(=O)Nc1cn(C)c(C(=O)Nc2cn(C)c(C(=O)Nc3cn(C)c(C(=O)NCCCC(=O)Nc4cc(C(=O)Nc5cc(C(=O)Nc6ccc7[nH]c(C(=O)N8CC(CCl)c9c8cc(O)c8ccccc98)cc7c6)n(C)c5)n(C)c4)n3)n2)n1", "note": "(stereo not shown) [compound (4-3), AcImImIm-γ-PyPy-Indole-seco-CBI]", "values": [{"measurement": "telomeric-sequence-specific alkylation", "setting": "[11]", "value": "Efficient telomeric-sequence-specific alkylation (5′-ACCCTA-3′) in a hairpin mode of recognition"}]}
{"compound": "ImPyLDu86", "values": [{"measurement": "alkylation efficiency", "setting": "[12]", "value": 70, "unit": "%"}]}
